Data from US8697703B2, “Piperazine derivatives for blocking Cav2.2 calcium channels” (Convergence Pharmaceuticals Limited, priority 2010, dated 2014).
Several values for one entry are separate records, joined by “and”; a condition that tells them apart may be missing. Identical values can stand only once. Counter-ions that a name gives are not always drawn.

Key:
[1] = molecular target: T1, hCav3.2 channels (T-type; CACNA1H) (Homo sapiens, UniProt O95180, V664A); experiment: Cav3.2 assay (T-type), IonWorks Quattro planar array electrophysiology in stable HEK293 cells; type: cell-based; conditions: for IC50: current elicited by the 1st depolarising pulse inhibited by 50%, read-out: pIC50 (tonic) (converted)
T1 construct: predicted protein is equivalent to the full-length human variant NP_066921; expressed in transfected cells; plasmid pCIN5-human-alpha1H
Source text: The ability of the compounds of the invention to modulate the voltage-gated calcium channel subtype Cav3.2 (T-Type) may be determined by the following assay.
Stable cell lines expressing hCav3.2 channels were created by transfecting HEK293 cells with the plasmid pCIN5-human-alpha1H. pCIN5-human-alpha1H predicted protein is equivalent to the full-length human variant NP_066921 for the human ion channel CACNA1H (voltage dependent calcium channel T type alpha 1H subunit), the longer variant form. It contains minor alleles for two SNPs (Ala 664 and Arg 2077). However, in the absence of any knowledge about compound binding at this ion channel, these rare variants are not seen as issues. Stable cell line was selected by 500 ug/ml G418 (geneticin). The best cell line clone was selected by IonWorks. Cells were cultured in DMEM/F12 medium supplemented by 10% Foetal Bovine Serum (Gibco/Invitrogen #041-95750), 1% non-essential amino acids (PAA, M11-003) and 1% Penicillin-Streptomycin (Invitrogen, 15140-122). 500 ug/ml of G418 (PAA, P11-012) was added to maintain channel expression. Cells were grown and maintained at 37° C. in a humidified environment containing 5% CO2 in air. Cells were detached from the T175 culture flask for passage and harvesting using TrypLE (Gibco/Invitrogen cat #12604). For the experiment, cells were plated in a T175 culture flask 48 hours before running the assay to reach a 50-80% confluence the day of the experiment.
Cells were grown to 50-80% confluence in a T175 flask. Cells were removed from the incubator and the media was aspirated. Cells were washed with 5 ml of warmed (37° C.) TrypLE and then 3 ml of warmed (37° C.) TrypLE was added to the flask for 6 min. The flask was tapped to dislodge cells and 5 ml of warmed (37° C.) external buffer with barium and magnesium was added to prepare a cell suspension. Cell suspension was then placed into a 15 ml centrifuge tube and centrifuged for 2 min at 1000 rpm. After centrifugation, the supernatant was removed and the cell pellet was resuspended in 4-5 ml of pre-warmed (37° C.) external solution with barium and magnesium using a 5 ml pipette to break up the pellet.
Currents were recorded at room temperature using the IonWorks Quattro™ planar array electrophysiology technology (Molecular Devices Corp.) with PatchPlate™ PPC for Ionworks Quattro (Molecular Devices, 9000-0902). Stimulation protocols and data acquisition were carried out using a microcomputer (Dell Pentium 4). In order to determine planar electrode hole resistances (Rp), a 10 mV voltage step was applied across each well. These measurements were performed before cell addition. After cell addition a seal test was performed by applying a voltage step from −80 mV to −70 mV for 160 ms prior to antibiotic amphotericin-B solution (Sigma, […]) circulation to achieve intracellular access. Leak subtraction was conducted in all experiments by applying a 80 ms hyperpolarizing (10 mV) prepulse followed by a 80 ms at the holding potential before the test pulses, to measure leak current. Test pulses stepping from the holding potential of −120 mV to −40 mV were applied for 25 ms and repeated 10 times at a frequency of 3 Hz. In all experiments, the test pulse protocol was performed in the absence (pre-read) and presence (post-read) of a compound. Pre- and post-reads were separated by a compound addition followed by a 10 minute incubation.
The intracellular solution contained the following (in mM): K-gluconate 120, KCl 20, MgCl2 5, EGTA 5, HEPES 10, adjusted to pH 7.35.
Amphotericin-B solution was prepared as 50 mg/ml stock solution in DMSO and diluted to a final working concentration of 0.2 mg/ml in intracellular solution. The external solution contained the following (in mM): Na-gluconate 120, NaCl 20, HEPES 10, MgCl2 1, BaCl2 5, with a pH of 7.35.
Compounds were prepared in DMSO as 10 mM stock solutions and subsequent 1:3 serial dilutions were performed. […]

[2] = molecular target: T2, hCav2.2 (N-type) calcium channel: human Cav2.2α (α1B) subunit with human β3 and α2δ1 auxiliary subunits (Homo sapiens, UniProt Q00975); experiment: hCav2.2 assay (N-type), IonWorks planar array electrophysiology in stable HEK293 cells; type: cell-based; conditions: hydrochloride
T2 construct: expressed in transfected cells; plasmids pCIN5-hCav2.2, pCIH-hCav β3, pCIP-α2δ1
Experimental: Compounds as defined in the first or second aspect may be tested for in vitro biological activity in the hCav2.2 assay (N-type) in accordance with the following studies:
Stable cell lines expressing the human Cav2.2α (α1B) subunit, along with the human β3 and α2δ1 auxiliary subunits were created following sequential transfection and selection of human embryonic kidney (HEK293) cells. HEK293 cells were cultured in Dulbecco's modified Eagles media/F12 media (Invitrogen, Cat #041-95750V) containing 10% fetal bovine serum, with added L-glutamine (2 mM; Invitrogen, Cat #25030-024) and non-essential amino acids (5%; Invitrogen, Cat #11140-035). […] These clonal cell lines were assessed for Cav2.2 α/β3-mediated current expression using the IonWorks planar array electrophysiology technology (described below). […]
Currents were recorded at room temperature (21-23° C.) using the IonWorks planar array electrophysiology technology (Molecular Devices Corp.). […] In all experiments, the test pulse protocol was performed in the absence (pre-read) and presence (post-read) of a compound. Pre- and post-reads were separated by a compound addition followed by a 3-3.5 min incubation. […]

T1 sequence (O95180 whole entry V664A): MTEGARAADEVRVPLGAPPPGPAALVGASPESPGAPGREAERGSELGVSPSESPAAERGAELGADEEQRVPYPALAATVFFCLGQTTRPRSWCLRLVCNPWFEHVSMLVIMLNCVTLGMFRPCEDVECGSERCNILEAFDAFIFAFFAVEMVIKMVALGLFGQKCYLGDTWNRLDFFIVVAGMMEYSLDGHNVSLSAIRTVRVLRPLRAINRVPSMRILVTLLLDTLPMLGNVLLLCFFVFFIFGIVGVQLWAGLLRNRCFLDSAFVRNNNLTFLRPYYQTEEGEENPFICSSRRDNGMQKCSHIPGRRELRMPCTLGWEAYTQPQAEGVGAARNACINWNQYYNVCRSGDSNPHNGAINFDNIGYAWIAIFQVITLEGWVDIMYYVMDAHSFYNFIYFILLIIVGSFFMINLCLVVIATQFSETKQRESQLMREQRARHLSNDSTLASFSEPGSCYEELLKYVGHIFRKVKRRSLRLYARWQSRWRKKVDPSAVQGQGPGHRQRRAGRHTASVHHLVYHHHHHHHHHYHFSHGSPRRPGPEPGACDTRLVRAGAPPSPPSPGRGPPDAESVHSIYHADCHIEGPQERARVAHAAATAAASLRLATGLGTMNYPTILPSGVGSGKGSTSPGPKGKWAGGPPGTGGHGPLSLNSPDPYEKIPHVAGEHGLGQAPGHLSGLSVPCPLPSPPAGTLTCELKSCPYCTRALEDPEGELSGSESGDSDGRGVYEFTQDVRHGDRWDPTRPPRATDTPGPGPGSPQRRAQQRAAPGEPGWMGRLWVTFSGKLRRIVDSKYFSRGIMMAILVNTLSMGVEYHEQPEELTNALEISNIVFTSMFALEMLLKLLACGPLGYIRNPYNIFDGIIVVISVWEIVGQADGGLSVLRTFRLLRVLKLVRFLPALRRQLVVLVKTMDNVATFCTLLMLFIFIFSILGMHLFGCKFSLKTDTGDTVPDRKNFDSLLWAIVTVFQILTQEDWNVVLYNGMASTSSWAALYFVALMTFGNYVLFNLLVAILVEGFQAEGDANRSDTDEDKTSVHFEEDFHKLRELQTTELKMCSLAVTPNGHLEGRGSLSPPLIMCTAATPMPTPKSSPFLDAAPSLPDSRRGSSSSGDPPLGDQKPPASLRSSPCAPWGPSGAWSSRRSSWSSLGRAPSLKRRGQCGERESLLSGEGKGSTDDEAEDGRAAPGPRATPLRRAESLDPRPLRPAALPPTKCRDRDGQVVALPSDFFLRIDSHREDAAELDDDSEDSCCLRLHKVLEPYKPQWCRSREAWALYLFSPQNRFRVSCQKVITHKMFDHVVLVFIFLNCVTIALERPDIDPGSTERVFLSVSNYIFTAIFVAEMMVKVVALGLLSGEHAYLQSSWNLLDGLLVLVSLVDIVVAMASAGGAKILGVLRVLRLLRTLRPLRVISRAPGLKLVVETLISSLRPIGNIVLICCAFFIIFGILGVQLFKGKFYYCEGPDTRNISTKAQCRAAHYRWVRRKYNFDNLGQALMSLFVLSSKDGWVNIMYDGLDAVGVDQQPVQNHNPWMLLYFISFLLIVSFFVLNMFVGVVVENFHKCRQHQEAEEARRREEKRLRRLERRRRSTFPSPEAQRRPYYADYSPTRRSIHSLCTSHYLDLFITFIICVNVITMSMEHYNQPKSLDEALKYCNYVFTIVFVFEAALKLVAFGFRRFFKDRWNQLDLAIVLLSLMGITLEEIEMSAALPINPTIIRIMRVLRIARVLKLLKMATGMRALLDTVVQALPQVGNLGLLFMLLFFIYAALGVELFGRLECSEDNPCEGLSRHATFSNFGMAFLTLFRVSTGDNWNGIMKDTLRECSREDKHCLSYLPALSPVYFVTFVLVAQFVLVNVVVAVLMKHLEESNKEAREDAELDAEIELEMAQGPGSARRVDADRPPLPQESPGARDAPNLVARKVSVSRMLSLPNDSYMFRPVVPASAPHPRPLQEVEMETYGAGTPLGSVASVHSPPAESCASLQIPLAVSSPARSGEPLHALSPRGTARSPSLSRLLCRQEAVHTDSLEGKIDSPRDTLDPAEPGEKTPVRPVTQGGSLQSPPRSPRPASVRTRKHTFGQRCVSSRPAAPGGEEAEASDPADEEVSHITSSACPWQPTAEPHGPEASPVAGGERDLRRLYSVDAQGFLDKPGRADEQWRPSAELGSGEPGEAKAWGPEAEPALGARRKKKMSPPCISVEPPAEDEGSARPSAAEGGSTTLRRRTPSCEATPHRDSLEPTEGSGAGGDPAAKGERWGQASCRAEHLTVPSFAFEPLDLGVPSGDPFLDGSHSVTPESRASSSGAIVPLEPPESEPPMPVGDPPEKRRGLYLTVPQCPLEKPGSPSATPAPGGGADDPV

C[C@H]1CN(S(=O)(=O)c2ccc(C(F)(F)F)cc2)CCN1C(=O)c1ccc2cccnc2c1 [Compound 1, 7-[((2S)-2-Methyl-4-{[4-(trifluoromethyl)phenyl]sulfonyl}-1-piperazinyl)carbonyl]quinoline] was tested, and the IC50 [1] was ≤ 31.6 µM.

Cc1c(C(=O)N2CCN(S(=O)(=O)c3ccc(OC(F)(F)F)cc3)CC2)ccc2cccnc12 [Compound 2, 8-Methyl-7-{[4-({4-[(trifluoromethyl)oxy]phenyl}sulfonyl)-1-piperazinyl]carbonyl}quinoline] was tested, and the IC50 [1] was ≤ 31.6 µM.

With Cl.O=C(c1ccc2ccccc2n1)N1CCN(S(=O)(=O)c2ccc(C(F)(F)F)cc2)CC1 [Compound 3, 2-[(4-{[4-(Trifluoromethyl)phenyl]sulfonyl}-1-piperazinyl)carbonyl]quinoline hydrochloride] the “pUD30 (use-dependent)” value ([2]; concentration producing 30% use-dependent inhibition, 10th versus 1st depolarising pulse, 10 Hz, -90 mV to +10 mV) was 5.8, the “pIC50 (tonic)” value ([2]; current elicited by the 1st depolarising pulse inhibited by 50%) was 4.6 and the “pUD30 (use-dependent)” value ([1]; concentration producing 30% use-dependent inhibition, 10th versus 1st depolarising pulse, 3 Hz, -120 mV to -40 mV, hydrochloride) was 5.4. The IC50 [1] was 25.1 µM and ≤ 31.6 µM.

Cc1cc(C#N)ccc1S(=O)(=O)N1CCN(C(=O)c2ccc3cccnc3c2)CC1 [Compound 7, 3-Methyl-4-{[4-(7-quinolinylcarbonyl)-1-piperazinyl]sulfonyl}benzonitrile hydrochloride] was tested, and the IC50 [1] was ≤ 31.6 µM.

In the case of Cc1ccc2ccc(C(=O)N3CCN(S(=O)(=O)c4ccc(C#N)cc4C)CC3)cc2n1 [Compound 9, 3-Methyl-4-({4-[(2-methyl-7-quinolinyl)carbonyl]-1-piperazinyl}sulfonyl)benzonitrile hydrochloride], the IC50 [1] is reported as ≤ 31.6 µM.

Cc1ccc2ccc(C(=O)N3CCN(S(=O)(=O)c4ccc(C#N)cc4C)C[C@@H]3C)cc2n1 [Compound 10, 3-Methyl-4-({(3S)-3-methyl-4-[(2-methyl-7-quinolinyl)carbonyl]-1-piperazinyl}sulfonyl)benzonitrile] was tested, and the IC50 [1] was ≤ 31.6 µM.

In the case of Cc1cc(C#N)ccc1S(=O)(=O)N1CCN(C(=O)c2ccc3cccnc3c2C)[C@@H](C)C1 [Compound 15, 3-Methyl-4-({(3S)-3-methyl-4-[(8-methyl-7-quinolinyl)carbonyl]-1-piperazinyl}sulfonyl)benzonitrile], the IC50 [1] is reported as ≤ 31.6 µM.

With Cc1cc(C#N)ccc1S(=O)(=O)N1CCN(C(=O)c2cccc3ccncc23)CC1 [Compound 26, 4-{[4-(8-Isoquinolinylcarbonyl)-1-piperazinyl]sulfonyl}-3-methylbenzonitrile hydrochloride] the IC50 [1] was ≤ 31.6 µM.

With O=C(c1cccc2cccnc12)N1CCN(S(=O)(=O)c2ccc(OC(F)(F)F)cc2)CC1 [Compound 30, 8-{[4-({4-[(Trifluoromethyl)oxy]phenyl}sulfonyl)-1-piperazinyl]carbonyl}quinoline] the IC50 [1] was ≤ 31.6 µM.
